The target of data set [1] is Met kinase (Homo sapiens, UniProt P08581). Kind of data set: Met kinase inhibition (cell assay). Type of data set: cell-based.

SMILES strings stand for the structures. Structures can show the parent of a compound that is named as a salt.

Usually IC50 stands for the concentration needed to halve the response being measured. A word on the melting point: it is the temperature, or range, at which the solid turns liquid.

Chain of Met kinase (P08581 25-1390): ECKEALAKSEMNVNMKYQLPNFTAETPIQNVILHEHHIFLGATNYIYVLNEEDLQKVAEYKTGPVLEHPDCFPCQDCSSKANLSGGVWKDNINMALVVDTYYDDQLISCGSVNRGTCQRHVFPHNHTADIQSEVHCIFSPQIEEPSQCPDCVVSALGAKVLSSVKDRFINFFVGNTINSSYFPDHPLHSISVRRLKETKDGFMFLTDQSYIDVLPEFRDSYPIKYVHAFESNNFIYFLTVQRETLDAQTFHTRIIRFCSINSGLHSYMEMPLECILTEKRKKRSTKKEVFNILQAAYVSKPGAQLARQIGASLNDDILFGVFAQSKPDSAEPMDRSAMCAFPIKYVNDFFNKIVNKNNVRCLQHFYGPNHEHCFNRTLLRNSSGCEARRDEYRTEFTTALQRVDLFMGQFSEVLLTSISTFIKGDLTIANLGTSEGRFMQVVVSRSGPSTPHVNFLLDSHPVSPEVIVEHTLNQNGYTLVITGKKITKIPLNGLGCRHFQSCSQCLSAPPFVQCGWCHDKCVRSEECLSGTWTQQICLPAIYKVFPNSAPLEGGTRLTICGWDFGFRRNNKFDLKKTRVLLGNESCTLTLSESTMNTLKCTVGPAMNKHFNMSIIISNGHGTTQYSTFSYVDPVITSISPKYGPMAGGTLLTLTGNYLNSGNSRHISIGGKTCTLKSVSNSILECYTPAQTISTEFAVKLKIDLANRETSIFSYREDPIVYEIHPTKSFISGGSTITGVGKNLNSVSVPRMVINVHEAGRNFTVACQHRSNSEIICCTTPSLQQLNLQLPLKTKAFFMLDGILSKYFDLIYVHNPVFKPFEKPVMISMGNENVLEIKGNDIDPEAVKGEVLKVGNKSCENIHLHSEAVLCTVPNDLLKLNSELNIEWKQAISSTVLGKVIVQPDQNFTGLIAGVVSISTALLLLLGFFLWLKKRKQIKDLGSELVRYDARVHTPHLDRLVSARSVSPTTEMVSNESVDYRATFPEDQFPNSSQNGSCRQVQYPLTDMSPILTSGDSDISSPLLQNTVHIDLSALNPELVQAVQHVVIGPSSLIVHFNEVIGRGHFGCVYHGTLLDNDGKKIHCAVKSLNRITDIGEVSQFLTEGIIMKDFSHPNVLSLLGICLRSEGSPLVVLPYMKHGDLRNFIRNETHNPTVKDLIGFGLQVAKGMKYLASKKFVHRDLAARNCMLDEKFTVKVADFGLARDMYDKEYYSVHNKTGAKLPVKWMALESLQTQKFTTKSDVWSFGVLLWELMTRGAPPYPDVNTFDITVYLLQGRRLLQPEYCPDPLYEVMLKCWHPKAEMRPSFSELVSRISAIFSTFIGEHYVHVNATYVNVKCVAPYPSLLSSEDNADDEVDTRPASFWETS

With `CN(C)CCCOc1cnc(-c2cccc(Cn3c(=O)oc4cc(F)c(F)cc43)c2)nc1` [Compound A93], in data set [1], the IC50 fell in the range of 1000 to 10000 nM.

The compound `CCOC(=O)Nc1cccc(Cn2c(=O)oc3ccc(C(=O)NCCN(C)C)cc32)c1` [Compound A30, Ethyl {3-[5-(2-dimethylaminoethylcarbamoyl)-2-oxobenzoxazol-3-ylmethyl]phenyl}carbamate] showed an IC50 in data set [1] of 10 to 1000 nM.

`Cc1ccc2oc(=O)n(Cc3cccc(-c4ncc(OCCN5CCOCC5)cn4)c3)c2n1` [Compound A79]: the concentration for half-maximal inhibition (IC50) in data set [1] lay within 10 to 1000 nM.

For the compound `CN(C)CCCCNC(=O)c1ccc2oc(=O)n(Cc3ccc4[nH]c(=O)[nH]c4c3)c2c1` [Compound A34, N-(4-Dimethylaminobutyl)-2-oxo-3-(2-oxo-2,3-dihydro-1H-benzimidazol-5-ylmethyl)-2,3-dihydrobenzoxazole-5-carboxamide], the IC50 in data set [1] lay within 10 to 1000 nM.

`CCOC(=O)Nc1cccc(C(C)n2c(=O)oc3ccc(C(=O)NCCN(C)C)cc32)c1` (stereo not drawn) [Compound A33, Ethyl (3-{1-[5-(2-dimethylaminoethylcarbamoy1)-2-oxobenzoxazol-3-yl]ethyl}phenyl)carbamate]: in data set [1], the concentration for half-maximal inhibition (IC50) is 10 to 1000 nM.

For the compound `CC(O)c1ccc2c(c1)oc(=O)n2Cc1cccc(NC(=O)OCCCN2CCN(C)CC2)c1` (stereo not drawn) [Compound A9, 3-(4-methylpiperazin-1-yl)propyl {3-[6-(1-hydroxyethyl)-2-oxobenzoxazol-3-ylmethyl]phenyl}carbamate], the IC50 in data set [1] lay in the range of 10 to 1000 nM.

For the compound `CC(c1cccc(NC(=O)OCCN2CCN(C)CC2)c1)n1c(=O)oc2cc(F)c(F)cc21` (stereo not drawn) (as salt: hydrochloride) [Compound A27, 2-(4-methylpiperazin-1-yl)ethyl {3-[1-(5,6-difluoro-2-oxobenzoxazol-3-yl)ethyl]phenyl}carbamate], the melting point was 236 to 238 °C (dec.).

In turn, `Cc1ccc2c(c1)oc(=O)n2Cc1cccc(NC(=O)OCCCN2CCN(C)CC2)c1` [Compound A21, 3-(4-Methylpiperazin-1-yl)propyl [3-(6-methyl-2-oxobenzoxazol-3-ylmethyl)phenyl]carbamate] gave an IC50 in data set [1] of 10 to 1000 nM.

On to `O=c1oc2c3ncccc3ccc2n1Cc1cccc(-c2ncc(OCCN3CCOCC3)cn2)c1` [Compound A103], for which, in data set [1], the IC50 lay in the range of 1000 to 10000 nM.

Compound `CN1CCN(CCCOC(=O)Nc2cccc(Cn3c(=O)oc4cc(F)c(F)cc43)c2)CC1` [Compound A19, 3-(4-Methylpiperazin-1-yl)propyl [3-(5,6-difluoro-2-oxobenzoxazol-3-ylmethyl)phenyl]carbamate] came in with an IC50 in data set [1] of 10 to 1000 nM.

In data set [1], `CCOC(=O)Nc1cccc(C(C)n2c(=O)oc3ccc(C(=O)NCCCN(C)C)cc32)c1` (stereo not drawn) [Compound A36, Ethyl (3-{1-[5-(3-dimethylaminopropylcarbamoy1)-2-oxobenzoxazol-3-yl]ethyl}phenyl)carbamate] returned a 50% inhibitory concentration (IC50) of 10 to 1000 nM.

In turn, `CN(C)CCCOc1cnc(-c2cccc(Cn3c(=O)oc4cc(S(=O)(=O)CCO)ccc43)c2)nc1` [Compound A92] gave an IC50 in data set [1] of 1000 to 10000 nM.

In turn, `COc1ccc2oc(=O)n(Cc3cccc(NC(=O)OCCCN4CCN(C)CC4)c3)c2c1` [Compound A1, 3-(4-methylpiperazin-1-yl)propyl [3-(5-methoxy-2-oxobenzooxazol-3-ylmethyl)phenyl]carbamate] came in with an IC50 in data set [1] of 10 to 1000 nM.

In data set [1], `CC(=O)c1ccc2oc(=O)n(Cc3cccc(-c4ncc(OCCCN(C)C)cn4)c3)c2c1` [Compound A67] had a half-inhibitory concentration (IC50) of 10 to 1000 nM.

In turn, `CN1CCN(CCCOC(=O)Nc2cccc(Cn3c(=O)oc4ccc(C(=O)N(C)C)cc43)c2)CC1` [Compound A3, 3-(4-Methylpiperazin-1-yl)propyl [3-(5-dimethylcarbamoyl-2-oxobenzoxazol-3-ylmethyl)phenyl]carbamate] gave an IC50 in data set [1] of 10 to 1000 nM.

`Cc1ccc2oc(=O)n(Cc3cccc(NC(=O)OCCCN4CCN(C)CC4)c3)c2c1` [Compound A7, 3-(4-Methylpiperazin-1-yl)propyl [3-(5-methyl-2-oxobenzoxazol-3-ylmethyl)phenyl]carbamate] gave an IC50 in data set [1] of 10 to 1000 nM.

For the compound `CCCNC(=O)c1ccc2oc(=O)n(Cc3cccc(NC(=O)OCCCN4CCN(C)CC4)c3)c2c1` [Compound A5, 3-(4-Methylpiperazin-1-yl)propyl [3-(5-propylcarbamoyl-2-oxobenzoxazol-3-ylmethyl)phenyl]carbamate], the IC50 in data set [1] lay in the range of 10 to 1000 nM.

Regarding `CN(C)CCCOc1cnc(-c2cccc(Cn3c(=O)oc4ccc(C#N)cc43)c2)nc1` [Compound A66], the 50% inhibitory concentration (IC50) in data set [1] fell in the range of 10 to 1000 nM.

On to `CN(C)CCNC(=O)c1ccc2oc(=O)n(Cc3ccc4[nH]c(=O)[nH]c4c3)c2c1` [Compound A35, N-(2-dimethylaminoethyl)-2-oxo-3-(2-oxo-2,3-dihydro-1H-benzoimidazol-5-ylmethyl)-2,3-dihydrobenzoxazole-5-carboxamide], for which the half-maximal inhibitory concentration (IC50) in data set [1] was in the range of 10 to 1000 nM.

In turn, `CN1CCN(CCOC(=O)Nc2cccc(Cn3c(=O)oc4ccccc43)c2)CC1` [Compound A17, 2-(4-Methylpiperazin-1-yl)ethyl [3-(2-oxobenzoxazol-3-ylmethyl)phenyl]carbamate] registered an IC50 in data set [1] of 10 to 1000 nM.

Turning to `CN1CCN(CCCOC(=O)Nc2cccc(Cn3c(=O)oc4ccccc43)c2)CC1` [Compound A18, 3-(4-Methylpiperazin-1-yl)propyl [3-(2-oxobenzoxazol-3-ylmethyl)phenyl]carbamate], in data set [1], the IC50 is 10 to 1000 nM.

`CN(C)CCCOC(=O)Nc1cccc(Cn2c(=O)oc3cccnc32)c1` [Compound A11, 3-Dimethylaminopropyl [3-(2-oxooxazolo[4,5-b]pyridin-3-ylmethyl)phenyl]carbamate] had a concentration for half-maximal inhibition (IC50) in data set [1] of 10 to 1000 nM.

In the case of `Cc1ccc2oc(=O)n(Cc3cccc(-c4ncc(OCC5CCNCC5)cn4)c3)c2n1` [Compound A87], in data set [1], the IC50 lay in the range of 10 to 1000 nM.

Consider `CN1CCN(CCCOC(=O)Nc2cccc(Cn3c(=O)oc4cc(Cl)ccc43)c2)CC1` [Compound A6, 3-(4-Methylpiperazin-1-yl)propyl [3-(6-chloro-2-oxobenzoxazol-3-ylmethyl)phenyl]carbamate], for which, in data set [1], the IC50 lay in the range of 10 to 1000 nM.

In data set [1], `COc1ccc2c(c1)oc(=O)n2Cc1cccc(NC(=O)OCCCN2CCN(C)CC2)c1` [Compound A20, 3-(4-Methylpiperazin-1-yl)propyl [3-(6-methoxy-2-oxobenzoxazol-3-ylmethyl)phenyl]carbamate] displayed an IC50 of 10 to 1000 nM.

In data set [1], `CN(C)CCCOC(=O)Nc1cccc(Cn2c(=O)oc3ccc(C(=O)N(C)C)cc32)c1` [Compound A12, 3-Dimethylaminopropyl [3-(5-dimethylcarbamoyl-2-oxobenzoxazol-3-ylmethyl)phenyl]carbamate] displayed an IC50 of 10 to 1000 nM.

Turning to `CN1CCN(CCCOC(=O)Nc2cccc(Cn3c(=O)oc4ccc(Cl)cc43)c2)CC1` [Compound A2], in data set [1], the IC50 lay in the range of 10 to 1000 nM.

The compound `COC(=O)c1ccc2oc(=O)n(Cc3cccc(NC(=O)OCCCN(C)C)c3)c2c1` [Compound A15, 3-Dimethylaminopropyl [3-(5-methoxycarbonyl-2-oxobenzoxazol-3-ylmethyl)phenyl]carbamate] returned a 50% inhibitory concentration (IC50) in data set [1] of 10 to 1000 nM.

With `CN(C)CCCOc1cnc(-c2cccc(Cn3c(=O)oc4ncccc43)c2)nc1` [Compound A95], the half-maximal inhibitory concentration (IC50) in data set [1] fell in the range of 1000 to 10000 nM.

`CN(C)CCCOc1cnc(-c2cccc(Cn3c(=O)oc4cc5ccccc5cc43)c2)nc1` [Compound A96] returned a 50% inhibitory concentration (IC50) in data set [1] of 10 to 1000 nM.

In the case of `CN(C)CCCOC(=O)Nc1cccc(Cn2c(=O)oc3ccccc32)c1` [Compound A16, 3-Dimethylaminopropyl [3-(2-oxobenzoxazol-3-ylmethyl)phenyl]carbamate], the half-inhibitory concentration (IC50) in data set [1] is 10 to 1000 nM.

On to `CN(C)C(=O)c1ccc2oc(=O)n(Cc3cccc(NC(=O)OCCCN4CCNCC4)c3)c2c1` [Compound A4, 3-Piperazin-1-ylpropyl [3-(5-dimethylcarbamoyl-2-oxobenzoxazol-3-ylmethyl)phenyl]carbamate], for which the IC50 in data set [1] was in the range of 10 to 1000 nM.

The compound `CC(=O)c1ccc2oc(=O)n(Cc3cccc(NC(=O)OCCCN4CCN(C)CC4)c3)c2c1` [Compound A8, 3-(4-Methylpiperazin-1-yl)propyl [3-(5-acetyl-2-oxobenzoxazol-3-ylmethyl)phenyl]carbamate] yielded an IC50 in data set [1] of 10 to 1000 nM.

In data set [1], `CCCNC(=O)c1ccc2oc(=O)n(Cc3cccc(NC(=O)OCCCN(C)C)c3)c2c1` [Compound A13, 3-Dimethylaminopropyl [3-(5-propylcarbamoyl-2-oxobenzoxazol-3-ylmethyl)phenyl]carbamate] registered an IC50 of 10 to 1000 nM.

In the case of `CCOC(=O)Nc1cccc(Cn2c(=O)oc3cc(C(=O)OC)ccc32)c1` [Compound A37, Methyl 3-(3-ethoxycarbonylaminobenzyl)-2-oxo-2,3-dihydrobenzoxazole-6-carboxylate], in data set [1], the half-maximal inhibitory concentration (IC50) is 10 to 1000 nM.

`COC(=O)c1ccc2c(c1)oc(=O)n2Cc1cccc(NC(=O)OCCCN(C)C)c1` [Compound A14, 3-Dimethylaminopropyl [3-(6-methoxycarbonyl-2-oxobenzoxazol-3-ylmethyl)phenyl]carbamate]: in data set [1], the half-inhibitory concentration (IC50) is 10 to 1000 nM.

For the compound `CCS(=O)(=O)c1ccc2oc(=O)n(Cc3cccc(-c4ncc(OCCCN(C)C)cn4)c3)c2c1` [Compound A82], the 50% inhibitory concentration (IC50) in data set [1] lay in the range of 10 to 1000 nM.

In the case of `CN(C)CCCOc1cnc(-c2cccc(Cn3c(=O)oc4cc([N+](=O)[O-])ccc43)c2)nc1` [Compound A76], the IC50 in data set [1] is 10 to 1000 nM.

As to `CCOC(=O)Nc1cccc(C(C)n2c(=O)oc3ccc(C(=O)NCCCCN(C)C)cc32)c1` (stereo not drawn) [Compound A32, Ethyl (3-{1-[5-(4-dimethylaminobutylcarbamoy1)-2-oxobenzoxazol-3-yl]ethyl}phenyl)carbamate], the IC50 in data set [1] fell in the range of 10 to 1000 nM.

For `CCOC(=O)Nc1cccc(Cn2c(=O)oc3ccc(C(=O)NCCCN(C)C)cc32)c1` [Compound A31, Ethyl {3-[5-(3-dimethylaminopropylcarbamoyl)-2-oxobenzoxazol-3-ylmethyl]phenyl}carbamate], the IC50 in data set [1] was 10 to 1000 nM.

On to `CCCNC(=O)c1ccc2oc(=O)n(Cc3cccc(NC(=O)OCCCN4CCNCC4)c3)c2c1` [Compound A10, 3-Piperazin-1-ylpropyl [3-(5-propylcarbamoyl-2-oxobenzoxazol-3-ylmethyl)phenyl]carbamate], for which, in data set [1], the IC50 is 10 to 1000 nM.

Turning to `CC(=O)c1ccc2c(c1)oc(=O)n2Cc1cccc(NC(=O)OCCCN2CCN(C)CC2)c1` [Compound A22, 3-(4-Methylpiperazin-1-yl)propyl [3-(6-acetyl-2-oxobenzoxazol-3-ylmethyl)phenyl]carbamate], the half-inhibitory concentration (IC50) in data set [1] was 10 to 1000 nM.
